For one assay, the system named is MYB mRNA. In words: Splicing RT-qPCR assay, canonical (CJ) and alternative (AJ) junction mRNA, K562 cells. It is filed as cell-based. To be noted: Homo sapiens, K562.3 cells, 24 hours; for AC50: read-out: MYB AJ (AC50, increase in AJ mRNA); for IC50: read-out: MYB CJ (IC50, decrease in CJ mRNA). In short, it runs like this:
(§1)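 Plate K562 cells, add compound (top 10 uM final, DMSO ≤0.25%) and incubate 24 h. Lyse, run one-step RT-qPCR for CJ and AJ, normalize to GAPDH or GUSB, then to DMSO, and express as % response.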
In general terms: In qPCR the cycle at which signal appears reflects the starting amount.

Another assay deals with HTT mRNA. The assay is described as above. It is filed as cell-based. To be noted: Homo sapiens, K562.3 cells, 24 hours; for AC50: read-out: HTT AJ (AC50, increase in AJ mRNA); for IC50: read-out: HTT CJ (IC50, decrease in CJ mRNA). In short, it runs like this:
as §1

Consider 22 compounds from patent US20260285853A1, “COMPOUNDS AND METHODS FOR MODULATING SPLICING” (REMIX THERAPEUTICS INC., priority 2023, published 2026).

On to `CCNC1CCN(c2ccc(C(=O)Nc3cc(F)c4nn(C)cc4c3)c3nn(C)cc23)CC1` [Compound 182, 4-(4-(ethylamino)piperidin-1-yl)-N-(7-fluoro-2-methyl-2H-indazol-5-yl)-2-methyl-2H-indazole-7-carboxamide], for which, in the assay with MYB mRNA, the AC50 (as a rule, the concentration giving half of the maximal activity seen) is 100 to 1000 nM and the concentration for half-maximal inhibition (IC50) (in general, the concentration that gives 50% inhibition) is under 100 nM. In the assay with HTT mRNA, the AC50 lay within 1000 to 10000 nM and the IC50 was 1000 to 10000 nM.

Consider `Cc1cn2cc(NC(=O)c3ccc(N4CCC(NC5CC5)CC4)c4cc(C)oc34)cc(F)c2n1` [Compound 185, 4-[4-(cyclopropyl-amino)-1-piperidyl]-N-(8-fluoro-2-methyl-imidazo[1,2-a]pyridin-6-yl)-2-methyl-benzofuran-7-carboxamide], for which, in the assay with MYB mRNA, the AC50 lay in the range of 100 to 1000 nM and the IC50 was in the range of 100 to 1000 nM. Moreover, in the assay on HTT mRNA, the concentration at half-maximal activity (AC50) was in the range of 1000 to 10000 nM and the IC50 was in the range of 1000 to 10000 nM.

Take `CCNC1CCN(c2ccc(C(=O)Nc3cc(C)c4nc(C)cn4n3)c3nn(C)cc23)CC1` [Compound 186, N-(2,8-dimethylimidazo [1,2-b]pyridazin-6-yl)-4-[4-(ethylamino)-1-piperidyl]-2-methyl-indazole-7-carboxamide]: in the assay with MYB mRNA, the AC50 lay within 100 to 1000 nM and the IC50 lay within 100 to 1000 nM. In addition, in the assay on HTT mRNA, the concentration at half-maximal activity (AC50) lay in the range of 100 to 1000 nM and the IC50 lay in the range of 100 to 1000 nM.

Take `Cc1cn2nc(NC(=O)c3ccc(N4CCC(NC5CC5)CC4)c4cn(C)nc34)cc(C)c2n1` [Compound 187, 4-[4-(cyclopropylamino)-1-piperidyl]-N-(2,8-dimethylimidazo-[1,2-b]pyridazin-6-yl)-2-methyl-indazole-7-carboxamide]: in the assay on MYB mRNA, the AC50 lay within 100 to 1000 nM and the IC50 fell in the range of 100 to 1000 nM. Further, in the assay on HTT mRNA, the AC50 fell in the range of 100 to 1000 nM and the IC50 was in the range of 100 to 1000 nM.

Consider `CCNC1CCN(c2ccc(C(=O)Nc3cc(F)c4nc(C)c(C)n4c3)c3nn(C)cc23)CC1` [Compound 188, 4-[4-(ethylamino)-1-piperidyl]-N-(8-fluoro-2,3-dimethyl-imidazo[1,2-a]pyridin-6-yl)-2-methyl-indazole-7-carboxamide], for which, in the assay on MYB mRNA, the concentration at half-maximal activity (AC50) was over 10000 nM and the 50% inhibitory concentration (IC50) was over 10000 nM. Further, in the assay with HTT mRNA, the concentration at half-maximal activity (AC50) was over 10000 nM and the IC50 was over 10000 nM.

Regarding `Cc1nc2c(F)cc(NC(=O)c3ccc(N4CCC(NC5CC5)CC4)c4cn(C)nc34)cn2c1C` [Compound 189, 4-[4-(cyclopropylamino)-1-piperidyl]-N-(8-fluoro-2,3-dimethyl-imidazo[1,2-a]pyridin-6-yl)-2-methyl-indazole-7-carboxamide], the AC50 in the assay on MYB mRNA and with HTT mRNA was over 10000 nM in each case. Also, the IC50 in the assay on MYB mRNA and in the assay on HTT mRNA was over 10000 nM each time.

In the case of `CCNC1CCN(c2ccc(C(=O)Nc3cc4cn(C)nc4cc3O)c3[nH]ccc23)CC1` [Compound 190, 4-[4-(ethylamino)-1-piperidyl]-N-(6-hydroxy-2-methyl-indazol-5-yl)-1H-indole-7-carboxamide], in the assay on MYB mRNA, the AC50 was over 10000 nM and the IC50 is over 10000 nM. In the assay on HTT mRNA, the concentration at half-maximal activity (AC50) is over 10000 nM and the IC50 is over 10000 nM.

For the compound `Cc1cn2cc(NC(=O)c3ccc(N4CCC(NC5CC5)CC4)c4ccoc34)cc(F)c2n1` [Compound 191, 4-[4-(cyclopropylamino)-1-piperidyl]-N-(8-fluoro-2-methyl-imidazo[1,2-a]pyridin-6-yl) benzofuran-7-carboxamide], in the assay on MYB mRNA, the half-maximal activity concentration (AC50) was 100 to 1000 nM and the IC50 fell in the range of 100 to 1000 nM. In addition, in the assay with HTT mRNA, the AC50 lay within 1000 to 10000 nM and the half-maximal inhibitory concentration (IC50) was in the range of 1000 to 10000 nM.

Turning to `Cc1cn2cc(NC(=O)c3ccc(C4CCC(NC5CC5)CC4)c4cn(C)nc34)cc(F)c2n1` (stereo not shown) [Compound 192, 4-[4-(cyclopropylamino)cyclohexyl]-N-(8-fluoro-2-methyl-imidazo[1,2-a]pyridin-6-yl)-2-methyl-indazole-7-carboxamide], in the assay on MYB mRNA, the AC50 was in the range of 100 to 1000 nM and the IC50 was 100 to 1000 nM. Also, in the assay with HTT mRNA, the AC50 lay within 1000 to 10000 nM and the half-inhibitory concentration (IC50) fell in the range of 100 to 1000 nM.

Regarding `CCNC1CCN(c2ccc(C(=O)Nc3cc(F)c4nc(CO)cn4c3)c3nn(C)cc23)CC1` [Compound 193, 4-[4-(ethylamino)-1-piperidyl]-N-[8-fluoro-2-(hydroxymethyl)imidazo[1,2-a]pyridin-6-yl]-2-methyl-indazole-7-carboxamide], in the assay with MYB mRNA, the AC50 was 1000 to 10000 nM and the IC50 fell in the range of 100 to 1000 nM. In addition, in the assay with HTT mRNA, the AC50 is over 10000 nM and the half-maximal inhibitory concentration (IC50) was over 10000 nM.

For `Cc1cn2cc(NC(=O)c3ccc(C4CNCCO4)c4[nH]cnc34)cc(F)c2n1` (stereo not shown) [Compound 194, N-(8-fluoro-2-methyl-imidazo[1,2-a]pyridin-6-yl)-7-morpholin-2-yl-1H-benzimidazole-4-carboxamide], in the assay on MYB mRNA, the AC50 is 100 to 1000 nM and the IC50 lay in the range of 100 to 1000 nM. In addition, in the assay on HTT mRNA, the AC50 lay within 1000 to 10000 nM and the IC50 lay within 1000 to 10000 nM.

For the compound `CCNC1CCN(c2cc(F)c(C(=O)Nc3cc(F)c4nc(C)cn4c3)c3ccoc23)CC1` [Compound 195, 7-[4-(ethylamino)-1-piperidyl]-5-fluoro-N-(8-fluoro-2-methylimidazo[1,2-a]pyridin-6-yl)-benzofuran-4-carboxamide], in the assay with MYB mRNA, the concentration at half-maximal activity (AC50) is over 10000 nM and the IC50 was over 10000 nM. For the same compound, in the assay with HTT mRNA, the AC50 is over 10000 nM and the half-maximal inhibitory concentration (IC50) is over 10000 nM.

Regarding `CCNC1CCN(c2ccc(C(=O)Nc3cc(F)c4nc(C)cn4c3)c3nn(C)nc23)CC1` [Compound 196, 7-[4-(ethylamino)piperidin-1-yl]-N-(8-fluoro-2-methyl-imidazo[1,2-a]pyridin-6-yl)-2-methyl-1,2,3-benzotriazole-4-carboxamide], in the assay on MYB mRNA, the AC50 lay in the range of 100 to 1000 nM and the 50% inhibitory concentration (IC50) is 100 to 1000 nM. In addition, in the assay with HTT mRNA, the AC50 fell in the range of 100 to 1000 nM and the half-inhibitory concentration (IC50) lay within 100 to 1000 nM.

For `CNC1(C)CCN(c2ccc(C(=O)Nc3cn4cc(C)nc4c(OC)n3)c3nn(C)cc23)CC1` [Compound 197, N-(8-methoxy-2-methylimidazo[1,2-a]pyrazin-6-yl)-2-methyl-4-(4-methyl-4-(methylamino)piperidin-1-yl)-2H-indazole-7-carboxamide], the AC50 with MYB mRNA and with HTT mRNA was under 100 nM throughout. The IC50 in the assay on MYB mRNA and with HTT mRNA was under 100 nM each time.

Regarding `CCNC1CCN(c2ccc(C(=O)Nc3cc(F)c4nc(C)cn4c3)c3c2nnn3C)CC1` [Compound 198, 4-(4-(ethylamino)piperidin-1-yl)-N-(8-fluoro-2-methylimidazo[1,2-a]pyridin-6-yl)-1-methyl-1H-benzo[d][1,2,3]triazole-7-carboxamide 2,2,2-trifluoroacetate], the AC50 in the assay on MYB mRNA and with HTT mRNA was over 10000 nM in each case. Further, the half-maximal inhibitory concentration (IC50) in the assay on MYB mRNA and in the assay on HTT mRNA was over 10000 nM each time.

Turning to `CCNC1CCN(c2ccc(C(=O)Nc3cc(F)c4nc(C)cn4c3)c3nnn(C)c23)CC1` [Compound 199, 7-[4-(ethylamino)-1-piperidyl]-N-(8-fluoro-2-methylimidazo[1,2-a]-pyridin-6-yl)-1-methylbenzotriazole-4-carboxamide], in the assay with MYB mRNA, the AC50 fell in the range of 100 to 1000 nM and the IC50 was in the range of 100 to 1000 nM. Moreover, in the assay with HTT mRNA, the half-maximal activity concentration (AC50) is over 10000 nM and the concentration for half-maximal inhibition (IC50) was over 10000 nM.

For the compound `CCNC1CCN(c2ccc(C(=O)Nc3cc(F)c4nc(C)oc4c3)c3nn(C)cc23)CC1` [Compound 200, 4-(4-(ethylamino)piperidin-1-yl)-N-(4-fluoro-2-methylbenzo[d]-oxazol-6-yl)-2-methyl-2H-indazole-7-carboxamide], in the assay with MYB mRNA, the AC50 is under 100 nM and the half-maximal inhibitory concentration (IC50) fell in the range of 100 to 1000 nM. In the assay on HTT mRNA, the half-maximal activity concentration (AC50) fell in the range of 1000 to 10000 nM and the IC50 was 100 to 1000 nM.

With `CCNC1CCN(c2ccc(C(=O)Nc3cc(F)c4nc(CC)cn4c3)c3nn(C)cc23)CC1` [Compound 201, 4-[4-(ethylamino)-1-piperidyl]-N-(2-ethyl-8-fluoro-imidazo[1,2-a]pyridin-6-yl)-2-methyl-indazole-7-carboxamide], in the assay on MYB mRNA, the AC50 lay within 1000 to 10000 nM and the IC50 is 1000 to 10000 nM. Also, in the assay on HTT mRNA, the half-maximal activity concentration (AC50) fell in the range of 1000 to 10000 nM and the IC50 is 1000 to 10000 nM.

On to `CCNC1CCN(c2ccc(C(=O)Nc3cc(F)c4nc(CF)cn4c3)c3nn(C)cc23)CC1` [Compound 202, 4-[4-(ethylamino)-1-piperidyl]-N-[8-fluoro-2-(fluoromethyl)imidazo[1,2-a]pyridin-6-yl]-2-methyl-indazole-7-carboxamide], for which the AC50 lay in the range of 100 to 1000 nM in the assay on MYB mRNA and 1000 to 10000 nM in the assay with HTT mRNA. Further, the figures for the IC50 in the assay with MYB mRNA and with HTT mRNA were under 100 nM and 1000 to 10000 nM, respectively.

Take `Cc1cn2cc(NC(=O)c3ccc(N4CCC(NC5CC56CC6)CC4)c4cn(C)nc34)cc(F)c2n1` (stereo not shown) [Compound 203, N-(8-fluoro-2-methyl-imidazo[1,2-a]-pyridin-6-yl)-2-methyl-4-[4-(spiro[2.2]pentan-2-ylamino)-1-piperidyl] indazole-7-carboxamide]: the AC50 with MYB mRNA is under 100 nM; in the assay with HTT mRNA it was 1000 to 10000 nM. Also, the IC50 with MYB mRNA is under 100 nM; in the assay with HTT mRNA it was 100 to 1000 nM.

Turning to `Cc1cn2cc(NC(=O)c3ccc(N4CCC(NC5CC5C)CC4)c4cn(C)nc34)cc(F)c2n1` (stereo not shown) [Compound 204, N-(8-fluoro-2-methyl-imidazo[1,2-a]pyridin-6-yl)-2-methyl-4-[4-[(2-methyl-cyclopropyl)amino]-1-piperidyl] indazole-7-carboxamide], the AC50 with MYB mRNA is under 100 nM; in the assay on HTT mRNA, 100 to 1000 nM. Moreover, the figures for the IC50 with MYB mRNA and in the assay on HTT mRNA were under 100 nM and 100 to 1000 nM, respectively.

Consider `Cc1cn2cc(NC(=O)c3ccc(N4CCC(NC5CC5(C)C)CC4)c4cn(C)nc34)cc(F)c2n1` (stereo not shown) [Compound 205, 4-(4-((2,2-dimethylcyclopropyl)amino)piperidin-1-yl)-N-(8-fluoro-2-methylimidazo[1,2-a]pyridin-6-yl)-2-methyl-2H-indazole-7-carboxamide], for which the results for the half-maximal activity concentration (AC50) with MYB mRNA and in the assay with HTT mRNA were under 100 nM and 1000 to 10000 nM, respectively. In addition, the IC50 in the assay with MYB mRNA was under 100 nM; in the assay on HTT mRNA, 1000 to 10000 nM.
